In one test the test system is SK-BR-3. Nature of the test: Inhibition of oncogene product p185 erbB-2 from human breast cancer cells(SK-BR-3 cells).
Test [1] deals with Mus musculus. The test can be described thus: In vivo inhibition of phospho-p185erbB-2 expression in FRE/erbB-2 tumors in nu/nu mice at 200 mg/kg dose.
Test [2] deals with Mus musculus. The test can be described thus: In vivo inhibition of phospho-p185erbB-2 expression in FRE/erbB-2 tumors in nu/nu mice at 100 mg/kg dose.

Where only a bound is given, the exact number is not on record here.

What is called IC50 is the concentration that gives 50% inhibition. The low end stands for higher potency, the high end for lower potency. The term inhibition in vivo denotes the change of the read-out against control, counted positive when it falls.

Take `CO[C@H]1C[C@H](C)CC2=C(NCCO)C(=O)C=C(NC(=O)/C(C)=C/CC[C@H](OC)[C@@H](OC(N)=O)/C(C)=C/[C@H](C)[C@H]1O)C2=O`: in the test on SK-BR-3, half-maximal inhibition (IC50) was put at 34 nM. The inhibition in vivo at 200 mg/kg in the test on Mus musculus [1] is 55%.

`CNC1=C2C[C@@H](C)C[C@H](OC)[C@H](O)[C@@H](C)/C=C(\C)[C@H](OC(N)=O)[C@@H](OC)CC/C=C(\C)C(=O)NC(=CC1=O)C2=O` gave an IC50 in the test with SK-BR-3 of 12 nM. This compound also registered an inhibition in vivo at 200 mg/kg in the test with Mus musculus [1] of 37%.

In the test on SK-BR-3, `COCCNC1=C2C[C@@H](C)C[C@H](OC)[C@H](O)[C@@H](C)/C=C(\C)[C@H](OC(N)=O)[C@@H](OC)CC/C=C(\C)C(=O)NC(=CC1=O)C2=O` had a half-maximal inhibitory concentration (IC50) of 33 nM. The same compound came in with an inhibition in vivo at 100 mg/kg in the test on Mus musculus [2] of 42%. Besides, at 200 mg/kg the inhibition in vivo in the test on Mus musculus [1] was 69%.

Regarding `CO[C@H]1/C=C\C=C(/C)C(=O)NC2=CC(=O)C(NC[C@H](C)O)=C(C[C@@H](C)C[C@H](OC)[C@H](O)[C@@H](C)/C=C(\C)[C@@H]1OC(N)=O)C2=O`, in the test with SK-BR-3, half-maximal inhibition (IC50) was put at 99 nM. This compound also gave an inhibition in vivo at 100 mg/kg with Mus musculus [2] of 65%. This compound also came in with an inhibition in vivo at 200 mg/kg in the test on Mus musculus [1] of 70%.

On to `CO[C@H]1C[C@H](C)CC2=C(N3CCC3)C(=O)C=C(NC(=O)/C(C)=C/CC[C@H](OC)[C@@H](OC(N)=O)/C(C)=C/[C@H](C)[C@H]1O)C2=O`, for which the midpoint of inhibition in the test on SK-BR-3, the IC50, lay at 14 nM. The compound further displayed an inhibition in vivo at 100 mg/kg in the test with Mus musculus [2] of 38%. In the test with Mus musculus [1], the inhibition in vivo at 200 mg/kg came to 27%.

In turn, `CO[C@H]1C[C@H](C)CC2=C(NCC(C)O)C(=O)C=C(NC(=O)/C(C)=C/CC[C@H](OC)[C@@H](OC(N)=O)/C(C)=C/[C@H](C)[C@H]1O)C2=O` (stereo not given in full) came in with a concentration for half-maximal inhibition (IC50) with SK-BR-3 of 83 nM. In the test with Mus musculus [1], the inhibition in vivo at 200 mg/kg worked out at 32%.

`CO[C@H]1/C=C\C=C(/C)C(=O)NC2=CC(=O)C(N)=C(C[C@@H](C)C[C@H](OC)[C@H](O)[C@@H](C)/C=C(\C)[C@@H]1OC(N)=O)C2=O` returned a half-inhibitory concentration (IC50) with SK-BR-3 of 37 nM. Besides, the inhibition in vivo at 200 mg/kg in the test on Mus musculus [1] was 47%.

On to `CO[C@H]1C[C@H](C)CC2=C(NCCF)C(=O)C=C(NC(=O)/C(C)=C/CC[C@H](OC)[C@@H](OC(N)=O)/C(C)=C/[C@H](C)[C@H]1O)C2=O`, for which, in the test with SK-BR-3, inhibition was half-maximal at 27 nM (IC50). The same compound displayed an inhibition in vivo at 200 mg/kg in the test with Mus musculus [1] of 53%.

Regarding `CO[C@H]1/C=C\C=C(/C)C(=O)NC2=CC(=O)C(N3CC(CO)C3)=C(C[C@@H](C)C[C@H](OC)[C@H](O)[C@@H](C)/C=C(\C)[C@@H]1OC(N)=O)C2=O`, the IC50 in the test on SK-BR-3 turned out to be 1300 nM.

Compound `CO[C@H]1C[C@H](C)CC2=C(NC(C)C)C(=O)C=C(NC(=O)/C(C)=C/CC[C@H](OC)[C@@H](OC(N)=O)/C(C)=C/[C@H](C)[C@H]1O)C2=O` came in with an IC50 in the test with SK-BR-3 of 470 nM.

With `CO[C@H]1C[C@H](C)CC2=C(NC3CC3)C(=O)C=C(NC(=O)/C(C)=C/CC[C@H](OC)[C@@H](OC(N)=O)/C(C)=C/[C@H](C)[C@H]1O)C2=O`, the IC50 in the test with SK-BR-3 came out at 46 nM. In addition, in the test on Mus musculus [2], the inhibition in vivo at 100 mg/kg is 31%.

In the test with SK-BR-3, `CO[C@H]1/C=C\C=C(/C)C(=O)NC2=CC(=O)C(N3CCCC3C(=O)O)=C(C[C@@H](C)C[C@H](OC)[C@H](O)[C@@H](C)/C=C(\C)[C@@H]1OC(N)=O)C2=O` (stereo not given in full) had an IC50 of 790 nM.

Consider `CO[C@H]1/C=C\C=C(/C)C(=O)NC2=CC(=O)C(NCc3ccccc3)=C(C[C@@H](C)C[C@H](OC)[C@H](O)[C@@H](C)/C=C(\C)[C@@H]1OC(N)=O)C2=O`, for which, in the test on SK-BR-3, the IC50 came out at 790 nM.

The compound `C#CCNC1=C2C[C@@H](C)C[C@H](OC)[C@H](O)[C@@H](C)/C=C(\C)[C@H](OC(N)=O)[C@@H](OC)/C=C\C=C(/C)C(=O)NC(=CC1=O)C2=O` had an IC50 with SK-BR-3 of 26 nM.

In the test on SK-BR-3, `CO[C@H]1/C=C\C=C(/C)C(=O)NC2=CC(=O)C(NC3CCCC3)=C(C[C@@H](C)C[C@H](OC)[C@H](O)[C@@H](C)/C=C(\C)[C@@H]1OC(N)=O)C2=O` returned a half-maximal inhibitory concentration (IC50) of more than 3260 nM.

On to `COC1=C2C[C@@H](C)C[C@H](OC)[C@H](O)[C@@H](C)/C=C(\C)[C@H](OC(N)=O)[C@@H](OC)/C=C\C=C(/C)C(=O)N3CN(C(C)(C)C)CC(=C3C2=O)C1=O`, for which the 50% inhibitory concentration (IC50) in the test on SK-BR-3 was more than 3040 nM.

Turning to `CO[C@H]1/C=C\C=C(/C)C(=O)NC2=CC(=O)C(NC(C)C)=C(C[C@@H](C)C[C@H](OC)[C@H](O)[C@@H](C)/C=C(\C)[C@@H]1OC(N)=O)C2=O`, the IC50 in the test on SK-BR-3 amounted to 60 nM. This compound also gave an inhibition in vivo at 200 mg/kg with Mus musculus [1] of 87%.
